Like-named read-outs stand apart in the source and are kept apart here.
Key:
[1] = tested on: S. epidermidis ATCC 12228; experiment: Antibacterial liquid microdilution (CLSI M07-A8); format: cell-based, Staphylococcus epidermidis; conditions: 18 to 24 h
Experimental: (§1) Organometallic compounds play an increasingly important role in the search for new antibacterial agents. We, therefore, thought to investigate also the bactericidal activity of the newly synthesized cymantrenes 1–7, compound C and CymH. The antibacterial activity of the compounds was tested against Gram-positive methicillin-sensitive Staphylococcus aureus (MSSA), methicillin-resistant S. aureus (MRSA), vancomycin-intermediate S. aureus (VISA), S. epidermidis, and Gram-negative Escherichia coli bacterial strains, and expressed as minimal inhibitory concentration (MIC) values (Table 3).
(§2) The antibacterial activity of CymH, 1–7 and C and the reference drugs penicillin G and polymyxin B was tested by the liquid microdilution method under standard conditions using twofold dilution series, as described in the Clinical and Laboratory Standards Institute (CLSI), reference method M07-A8, and expressed as minimal inhibitory concentration (MIC) values. A panel of Gram-positive bacterial strains, S. aureus ATCC® 29213 (sensitive to methicillin, (MSSA)), S. aureus ATCC® 43300 (resistant to methicillin, (MRSA)), S. aureus ATCC 700787™ (intermediate to vancomycin, (VISA)), and S. epidermidis ATCC 12228™, and one Gram-negative, strain E. coli ATCC BAA-198™ (ESBL) were used. In addition, four clinical isolates of S. aureus (MSSA and MRSA) and two clinical isolates of S. epidermidis that were collected from different patients at the Medical University of Warsaw, Poland, were also tested. The bacterial cells were cultivated on tryptic soy agar (TSA) and nutrient agar (NA), according to ATCC recommendations. All of the strains were incubated at 37 °C. Tested compounds were dissolved in DMSO and then serially diluted twofold with cation-adjusted Mueller-Hinton broth (CAMHB). Then, 95 µL of the dilutions were dispensed into microdilution sterile plates (Mar-Four), followed by the addition of 5 µL of bacteria inoculum containing 5 × 10^4 CFU/mL. The final concentrations of the compounds ranged from 512 to 2 µg/mL. Each compound was tested in triplicate, and Penicillin G (8–0.15 µg/mL) and Polymyxin B (256–0.0625 µg/mL) were used as controls. The plates were incubated at 37 °C for 18 to 24 h depending on the bacterial strain. Thereafter, the absorbance was measured at λ = 540 nm and λ = 595 nm using a Spectrostar Omega microplate reader (BMG Labtech, Offenburg, Germany). The MIC value was defined as the lowest concentration of a compound that reduced the growth by 100%.

[2] = Determination of log Po/w by chromatographic (RP-HPLC) method, Soczewiński–Wachtmeister relationship; conditions: water/methanol, C18, 20 °C
Experimental: In this study, a chromatographic method and the Soczewiński–Wachtmeister relationship were used in order to determine the lipophilicity of the compounds [38, 39, 40, 41]
For the determination of log Po/w values, the newly synthesized compounds were analyzed by an Agilent 1200 system (Agilent Technologies, Santa Clara, CA, USA) equipped with a Zorbax Eclipse XDB column (C18, 250 × 4.6 mm, Agilent Technologies) and controlled by the software ChemStation Data Analysis. The separation was isocratic, and water/methanol (HPLC gradient grade, Sigma-Aldrich, St. Louis, MO, USA) mixtures containing 0.50, 0.55, 0.60, 0.65, 0.70, 0.75, 0.80, 0.85, 0.90 and 0.95 volume fractions of organic modifier were used as the mobile phase. The flow rate was 1.0 mL/min for the 7 and 2 and 0.8 mL/min for other compounds. The chromatographic peaks of test compounds were detected by UV absorbance at 230 nm. The column temperature was kept at 20 °C. The dead-time values were measured from the effluent peaks. All of the runs were performed in triplicate, and the resulting average values were used for the calculation of the retention factors.

SKOV-3 cells = experiment: Intracellular ROS, H2DCF-DA fluorescent probe; format: cell-based, human; conditions: SKOV-3, 0.5 × IC50, IC50, 2 × IC50
Source text: Oxidative stress is a part of the cytotoxic activity of many anticancer agents and the production of reactive oxygen species (ROS) is considered as one of the main molecular mechanisms accompanying chemotherapy, radiotherapy, and photodynamic therapy. Since ROS can act as both oxidants and antioxidants, depending on the conditions, pro- and anti-oxidant therapies have been proposed for the treatment of cancer. So far, both ROS scavenging and ROS boosting anticancer therapies have shown promising results in vitro and in vivo [48]. Using an appropriate fluorescence probe, we measured the amount of ROS in cancer cells that were treated with cymantrene derivatives. […] The greatest increase in ROS was observed after […], with the highest concentration of cymantrene conjugates employed (2 × IC50) (Figure 8). […] As compounds 1, 3, 5, and C were effective in the production ROS, as well as in the induction of apoptosis and autophagy, these processes might contribute together to the cytotoxic action of the molecules.
The intracellular ROS were measured with the oxidation-sensitive fluorescent probes 2′,7′-dichlorodihydrofluorescein diacetate (H2DCF-DA) (Sigma-Aldrich, St. Louis, MO, USA), as described elsewhere. The cell-permeant non-fluorescent dye H2DCF-DA is a reduced form of fluorescein that inside the cell, upon cleavage of the acetate groups by intracellular esterases and oxidation by ROS, is converted into the highly fluorescent product 2′,7′-dichlorofluorescein (DCF) (λex/λem: 498/525 nm). For the assay, 2 × 10^4 cells were seeded into wells of black flat-bottom 96-well microplates a day before the experiment. The next day, test compounds were added at concentrations of 0.5 × IC50, 1 × IC50, and 2 × IC50. […] After 24 h incubation, medium was removed, cell monolayers were washed twice with HBSS and 5 µM H2DCF-DA, dissolved in HBSS, was added to each well. The cells were incubated with the fluorescent probe for 30 min in the dark at 37 °C, and then the fluorescence of produced DCF was monitored over a time period of 0–3 h at 15-min intervals with a microplate reader.

[3] = tested on: MCF-7/DX (estrogen-responsive breast adenocarcinoma resistant to doxorubicin); experiment: cells; format: cell-based, human
Experimental: The inhibitory effect of cymantrene derivatives on cell proliferation and growth was determined based on survival curves and was expressed as IC50 values (concentration required to achieve a 50% decrease in cell viability when compared to the viability of untreated control cells) calculated using GraphPad Prism 4.02 software for Windows (GraphPad Software, San Diego, CA, USA). Cell viability was determined by the MTT microplate spectrophotometric cytotoxicity test.
Anticancer activity of cymantrene derivetives were determined on the basis of their cytotoxic effects on a panel of human cancer cells, as derived from different types of solid tumors: estrogen responsive breast adenocarcinoma (MCF-7), triple negative breast adenocarcinoma (MDA-MB-231), ovarian adenocarcinoma (SKOV-3), non-small cell lung carcinoma (A549), hepatocellular carcinoma (HepG2), and glioblastoma (U-87 MG).
Cells were grown as a monolayer in DMEM growth medium, supplemented with 10% FBS, penicillin (10 U/mL) and streptomycin (50 μg/mL), under standard conditions (37 °C, 5% CO2 and 95% air, 100% humidity) and periodically checked for Mycoplasma contamination.
The cytotoxicity of cymantrene derivatives was evaluated by the MTT microplate methods as described elsewhere [67] by incubating the cells with increasing concentrations of tested compounds for 24 h. Briefly, 0.1 mL of logarithmically growing cells were seeded in a 96-well microplate (5 × 10^4 cells/well) a day before the experiments and after 24 h of culture, tested compounds, dissolved in DMSO, and diluted in culture medium, were added. […] After further incubation for 24 h, the medium was replaced with fresh medium and the cells were allowed to grow for additional 48 h. Then, the medium was aspirated and 0.05 mL of MTT (final concentration of 5 mg/mL medium) added to each well, and the cells were incubated for further 4 h. The absorbance of the product, resulting from the MTT reduction, was read with a microplate reader at 545 nm. The percentage of viable cells was calculated by comparing the absorbance of treated cells with that of the untreated control cells (taken as 100%). The IC50 concentration of each compound was calculated from the cell survival curves using GraphPad Prism 4.02 software for Windows (GraphPad Software, San Diego, CA, USA).

[4] = tested on: Gram-positive bacterial strains, including MRSA and VISA pathogens; experiment: Antibacterial activity over the panel of strains (summary statements); format: cell-based; conditions: for antibacterial activity in words: reference bacterial strains; for antibacterial activity (range over strains): summary range
Experimental: as §1, §2

[5] = tested on: Clinical S. aureus (MSSA) 26/11; experiment: Antibacterial liquid microdilution, clinical isolate; format: cell-based, Staphylococcus aureus
Experimental: (§3) This lack of activity against E. coli can be probably explained by an impeded cellular uptake of the compounds through the Gram-negative cell wall that consists of two layers and effective protein efflux pump systems. The antibacterial activities of 1 and C were further tested against four clinical isolates of S. aureus and two clinical isolates of S. epidermidis (Table 4).
as §2

[6] = tested on: Clinical S. aureus (MRSA) 31/12; experiment: as above; format: cell-based, Staphylococcus aureus
Experimental: as §3, §2

[7] = tested on: Clinical S. aureus (MRSA) 44/12; experiment: as above; format: cell-based, Staphylococcus aureus
Experimental: as §3, §2

[8] = tested on: Clinical S. aureus (MSSA) 30/11; experiment: as above; format: cell-based, Staphylococcus aureus
Experimental: as §3, §2

[9] = tested on: Clinical S. epidermidis (MSSA) 43/12; experiment: as above; format: cell-based, Staphylococcus epidermidis
Experimental: as §3, §2

[10] = tested on: Clinical S. epidermidis (MSSA) 37/12; experiment: as above; format: cell-based, Staphylococcus epidermidis
Experimental: as §3, §2

[11] = 24 h incubation, MTT, means ± SEM, read-out: cytotoxicity IC50, MCF-7/DX

Row | SMILES | MIC, S. epidermidis ATCC 12228 [1] [µg/mL] | Log Po/w [2] | generated intracellular ROS (SKOV-3 cells) | antibacterial activity in words [4] | also measured
1 | COC(CCn1cnc2c(N(C)C)ncnc21)[C]12[CH]3[CH]4[CH]5[CH]1[Mn]4532.[C-]#[O+].[C-]#[O+].[C-]#[O+] (racemic) [Compound 6] | >512 | – | – | – | –
2 | Nc1ncnc2c1ncn2CCC(O)[C]12[CH]3[CH]4[CH]5[CH]1[Mn]4532[P](c1ccccc1)(c1ccccc1)c1ccccc1.[C-]#[O+].[C-]#[O+] (racemic) [Compound 5] | >256 | 4.8 | generated the largest amounts of ROS | – | –
3 | O=[C]=[Mn](=[C]=O)(=[C]=O)[CH]1C=CC=C1 [CymH, tricarbonyl(η^5-cyclopentadienyl)manganese, reference compound] | >512 | 3.5 | – | not active | IC50 [3, 11]: 144 ± 2.24 µM
4 | COC(CCn1cc(F)c(=O)n(C)c1=O)[C]12[CH]3[CH]4[CH]5[CH]1[Mn]4532.[C-]#[O+].[C-]#[O+].[C-]#[O+] (racemic) [Compound 4] | >512 | – | – | – | –
5 | O=c1[nH]c(=O)n(CCC(O)[C]23[CH]4[CH]5[CH]6[CH]2[Mn]5643[P](c2ccccc2)(c2ccccc2)c2ccccc2)cc1F.[C-]#[O+].[C-]#[O+] (racemic) [Compound 3] | >256 | 5.2 | generated the largest amounts of ROS | – | IC50 [3, 11]: 39.9 ± 1.41 µM
6 | O=C(CCn1cc(F)c(=O)[nH]c1=O)[C]12[CH]3[CH]4[CH]5[CH]1[Mn]4532.[C-]#[O+].[C-]#[O+].[C-]#[O+] (stereo not drawn) [Compound 1] | 8 | – | generated the largest amounts of ROS | remarkable potency against all of the Gram-positive bacterial strains | MIC, Clinical S. aureus (MSSA) 26/11 [5]: 32 µg/mL; MIC, Clinical S. aureus (MRSA) 31/12 [6]: 64 µg/mL; MIC, Clinical S. aureus (MRSA) 44/12 [7]: 32 µg/mL; MIC, Clinical S. aureus (MSSA) 30/11 [8]: 64 µg/mL; IC50 [3]: 137 ± 3.41 µM; MIC, Clinical S. epidermidis (MSSA) 43/12 [9]: 8 µg/mL; MIC, Clinical S. epidermidis (MSSA) 37/12 [10]: 4 µg/mL; antibacterial activity (range over strains) [4]: 8 to 64 µg/mL
7 | CCC(=O)[C]12[CH]3[CH]4[CH]5[CH]1[Mn]4532.[C-]#[O+].[C-]#[O+].[C-]#[O+] (stereo not drawn) [Compound 7, propionylocymantrene] | >512 | – | – | not active | –
8 | Nc1ncnc2c1ncn2CCC(O)[C]12[CH]3[CH]4[CH]5[CH]1[Mn]45321[P](c2ccccc2)(c2ccccc2)CC[P]1(c1ccccc1)c1ccccc1.[C-]#[O+] (racemic) [Compound C] | 16 | – | generated the largest amounts of ROS | remarkable potency against all of the Gram-positive bacterial strains | MIC, Clinical S. aureus (MSSA) 26/11 [5]: 32 µg/mL; MIC, Clinical S. aureus (MRSA) 31/12 [6]: 32 µg/mL; MIC, Clinical S. aureus (MRSA) 44/12 [7]: 32 µg/mL; MIC, Clinical S. aureus (MSSA) 30/11 [8]: 32 µg/mL; MIC, Clinical S. epidermidis (MSSA) 43/12 [9]: 16 µg/mL; MIC, Clinical S. epidermidis (MSSA) 37/12 [10]: 16 µg/mL; antibacterial activity (range over strains) [4]: 8 to 64 µg/mL
